Laboratory results from BindingDB's records for PubMed 7969084 (Merck Sharp and Dohme Research Laboratories, 1994).
pKi: −log10 of the molar value.

Molecular target: T1, Cholecystokinin (Sus scrofa, UniProt P01356)
T1 sequence (P01356 whole entry): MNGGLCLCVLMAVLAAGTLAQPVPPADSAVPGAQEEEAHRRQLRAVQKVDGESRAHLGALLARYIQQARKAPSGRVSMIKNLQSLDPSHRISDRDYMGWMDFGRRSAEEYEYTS

- pKi: 8.92
Structure (SMILES): Cc1cccc(NC(=O)N[C@@H]2N=C(N3CCCCCC3)c3ccccc3N(C)C2=O)c1 [L-738416]
